Data on 84 molecules can be found in the Kinase Knowledgebase extract (Sharma et al. 2016).

The experiment deals with PIK3CG (human) (UniProt P48736). Nature of the experiment: Inhibition of PIK3CG Kinase Activity.

The structures appear in SMILES notation.

PIK3CG (human), sequence (P48736 whole entry, looked up): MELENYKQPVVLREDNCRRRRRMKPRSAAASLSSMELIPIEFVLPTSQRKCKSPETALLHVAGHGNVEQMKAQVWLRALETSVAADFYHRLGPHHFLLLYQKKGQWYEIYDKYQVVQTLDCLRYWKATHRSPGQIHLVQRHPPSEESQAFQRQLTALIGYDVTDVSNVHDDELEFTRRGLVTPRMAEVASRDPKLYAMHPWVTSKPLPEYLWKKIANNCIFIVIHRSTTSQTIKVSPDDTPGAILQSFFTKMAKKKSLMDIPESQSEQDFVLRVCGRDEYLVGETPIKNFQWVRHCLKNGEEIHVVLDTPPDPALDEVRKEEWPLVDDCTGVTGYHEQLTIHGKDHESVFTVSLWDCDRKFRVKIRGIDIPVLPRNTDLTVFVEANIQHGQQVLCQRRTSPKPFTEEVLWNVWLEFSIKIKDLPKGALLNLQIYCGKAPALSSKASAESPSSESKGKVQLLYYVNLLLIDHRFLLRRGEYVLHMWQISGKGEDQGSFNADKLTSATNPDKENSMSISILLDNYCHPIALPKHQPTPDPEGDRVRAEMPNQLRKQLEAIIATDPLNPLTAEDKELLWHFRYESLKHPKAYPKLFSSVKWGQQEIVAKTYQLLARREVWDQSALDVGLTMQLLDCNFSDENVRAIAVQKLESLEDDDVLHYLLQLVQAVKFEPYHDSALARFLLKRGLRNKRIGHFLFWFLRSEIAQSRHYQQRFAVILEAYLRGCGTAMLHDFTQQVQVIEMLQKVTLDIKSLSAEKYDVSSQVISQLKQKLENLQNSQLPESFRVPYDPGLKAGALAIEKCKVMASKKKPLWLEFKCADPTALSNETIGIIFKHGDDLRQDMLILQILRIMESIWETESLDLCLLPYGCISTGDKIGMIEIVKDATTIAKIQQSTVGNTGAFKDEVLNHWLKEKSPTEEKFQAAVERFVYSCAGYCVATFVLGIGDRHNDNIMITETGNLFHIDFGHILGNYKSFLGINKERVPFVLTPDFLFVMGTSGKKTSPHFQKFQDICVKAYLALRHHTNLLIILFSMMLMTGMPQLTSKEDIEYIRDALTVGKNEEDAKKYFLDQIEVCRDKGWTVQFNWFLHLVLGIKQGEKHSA

What is called Ki is the dissociation constant of the complex between target and ligand, obtained from inhibition or displacement. For `COc1cc(-c2cc(C)c3c(n2)C(C)N(c2cnn(C[C@H](C)O)c2)C3=O)cnc1OC` (some centres undefined), the inhibition constant (Ki) is below 100 nM. As for `COc1ncc(-c2ccc3c(n2)CN(c2cnn(CC(F)(F)F)c2)C3=O)cc1OC(F)F`, the Ki was below 100 nM.

The molecule `COc1ncc(-c2cc(C)c3c(n2)C(C)N(c2cnn(CC(F)F)c2)C3=O)cc1C(=O)O` (centres undefined) registered a Ki below 100 nM. Consider `COc1cc(OC)c(-c2cc(C)c3c(c2)CN(c2cnn(CC(F)(F)F)c2)C3=O)cn1`, for which the Ki was below 100 nM. As to `COCc1cc(N2Cc3nc(-c4cnc(OC)c(OC)c4)ccc3C2=O)nn1C[C@H](C)O`, the Ki was below 100 nM. Under `COc1cc(-c2ccc3c(n2)C(C)N(c2ccnc(C(C)C#N)c2)C3=O)cnc1OC` (centres undefined) stands below 100 nM; under `Cc1ccc(-c2cc(C)c3c(n2)CN(c2cnn(CC(F)(F)F)c2)C3=O)cc1O`, below 100 nM; under `COc1cncc(-c2cc(C)c3c(n2)[C@]2(CCOC2)N(c2cnn(CC(F)(F)F)c2)C3=O)c1`, below 100 nM. In turn, `Cc1cc(-c2cncc(OC(F)F)c2)nc2c1C(=O)N(c1cn[nH]c1)C2(C)C` returned a Ki below 100 nM.

Turning to `COc1ncc(-c2cc(C)c3c(n2)C(C)(C)N(c2cnn(CC(F)(F)F)c2)C3=O)cc1C(=O)NCCN(C)C`, the inhibition constant (Ki) was below 100 nM. `COc1cncc(-c2cc(C)c3c(n2)[C@H](C)N(c2cnn(CC(F)(F)F)c2)C3=O)c1` showed an inhibition constant (Ki) below 100 nM. For the molecule `COc1cncc(-c2cc(C)c3c(n2)C(C)(O)N(c2cnn(CC(F)(F)F)c2)C3=O)c1` (centres undefined), the Ki is below 100 nM. In the case of `Cc1cc(-c2cncc(OC(F)F)c2)nc2c1C(=O)N(c1cc[nH]n1)C2`, the inhibition constant (Ki) was below 100 nM. Under `COc1cc(OC)c(-c2cc(C)c3c(n2)CN(c2cnn(CC(F)(F)F)c2)C3=O)cn1` stands below 100 nM; under `CCOc1cncc(-c2cc(C)c3c(n2)[C@]2(CCOC2)N(c2cnn(CC(F)(F)F)c2)C3=O)c1`, below 100 nM; under `COc1cc(-c2cc(C)c3c(n2)C(C)(C)N(c2cnn(C[C@@H](C)O)c2)C3=O)cnc1OC`, below 100 nM. `COc1cc(-c2cc(C)c3c(n2)[C@@H](OC)N(c2cnn(CC(F)(F)F)c2)C3=O)cnc1OC`: the inhibitory constant (Ki) is below 100 nM. With `COc1ncc(-c2cc(C)c3c(n2)CN(c2cnn(CC(F)(F)F)c2)C3=O)cc1OCC(F)F`, the Ki is below 100 nM. Take `Cc1cc(-c2cncc(OCC(F)F)c2)nc2c1C(=O)N(c1cnn(CC(F)(F)F)c1)C2`: the inhibitory constant (Ki) was below 100 nM. For `COc1cc(-c2cc(C)c3c(c2)CN(c2cnn([C@@H](CO)C(F)(F)F)c2)C3=O)cnc1OC` the value was below 100 nM; for `COc1cc(-c2ccc3c(n2)CN(c2ccc(N(C)CC4OCCO4)nc2)C3=O)cnc1OC`, 100 to 490 nM; for `C=C(F)Cn1cc(N2C(=O)c3c(C)cc(-c4cncc(OC)c4)nc3C2(C)C)cn1`, below 100 nM. As to `COc1cncc(-c2cc(C)c3c(n2)CN(c2ccn(CC(C)(C)O)n2)C3=O)c1`, the Ki was below 100 nM.

`CCc1cc(N2Cc3nc(-c4cnc(OC)c(OC)c4)ccc3C2=O)nn1C[C@H](C)O`: the Ki was below 100 nM. In turn, `CCc1cc(-c2cnc(OC)c(OC)c2)nc2c1C(=O)N(c1cn[nH]c1)C2(C)C` gave a Ki below 100 nM.

Regarding `COCCOCCOc1cc(-c2cc(C)c3c(n2)CN(c2cnn(CC(F)(F)F)c2)C3=O)cnc1OC`, the inhibitory constant (Ki) was below 100 nM.

Molecule `Cc1cc(-c2cncc(S(=O)(=O)N(C)C)c2)nc2c1C(=O)N(c1cnn(CC(F)(F)F)c1)C21CCOC1` (centres undefined) displayed a Ki below 100 nM. Regarding `Cc1cc(-c2cncc(C(=O)NC3COC3)c2)nc2c1C(=O)N(c1cnn(CC(F)(F)F)c1)C2(C)C`, the Ki was below 100 nM. The molecule `CCn1cc(N2Cc3nc(-c4cnc(OC)c(OC)c4)ccc3C2=O)ccc1=O` gave a Ki below 100 nM.

As for `COc1cc(-c2ccc3c(n2)CN(c2cnn(CCN4CCOCC4)c2)C3=O)cnc1OC`, the inhibitory constant (Ki) was in the range of 100 to 490 nM. In turn, `COc1cncc(-c2cc(C)c3c(n2)C(C)N(c2cn[nH]c2)C3=O)c1` (centres undefined) displayed a Ki below 100 nM. `COc1cc(-c2ccc3c(c2)CN(c2cnn(CCO)c2)C3=O)cnc1OC` showed a Ki of 100 to 490 nM. `COc1cncc(-c2cc(C)c3c(n2)[C@@H](C)N(c2ccn(CC(C)(C)O)n2)C3=O)c1` had a Ki below 100 nM.

Turning to `C=C(F)Cn1cc(N2C(=O)c3ccc(-c4cnc(OC)c(OC)c4)nc3C2(C)C)cn1`, the Ki was below 100 nM. As for `COc1cc(-c2cc(C)c3c(n2)CN(c2ccnc(F)c2)C3=O)cnc1OC`, the inhibition constant Ki was below 100 nM.

With `COc1cc(-c2ccc3c(n2)C(C)N(c2ccn(C)n2)C3=O)cnc1OC` (centres undefined), the Ki is below 100 nM. As to `CCOc1cc(-c2cc(C)c3c(n2)CN(c2ccon2)C3=O)cnc1OC`, the inhibitory constant (Ki) was below 100 nM.

`COc1cncc(-c2cc(C)c3c(n2)[C@@]2(CCOC2)N(c2cnn(CC(F)(F)F)c2)C3=O)c1`: the Ki was below 100 nM. For `COCc1cccc(-c2cc(C)c3c(n2)CN(c2cnn(C(C)(C)C#N)c2)C3=O)c1` the value was 100 to 490 nM. As to `COc1cc(-c2cc(C)c3c(n2)C2(CCOCC2)N(c2cnn(CC(F)(F)F)c2)C3=O)cnc1OC(C)C`, the Ki is below 100 nM. On to `CCCOc1cc(-c2cc(C)c3c(n2)C(C)(C)N(c2cnn(CC#N)c2)C3=O)cnc1CC`, for which the inhibition constant (Ki) was below 100 nM. Regarding `Cc1cc(-c2ccc(N)nc2)nc2c1C(=O)N(c1cnn(CC(F)(F)F)c1)C2`, the Ki is below 100 nM. The molecule `Cc1cc(-c2cncc(C(=O)N(C)C(C)C)c2)nc2c1C(=O)N(c1cnn(CC(F)(F)F)c1)C2(C)C` registered a Ki below 100 nM.

For `COCCNC(=O)c1cncc(-c2cc(C)c3c(n2)C(C)(C)N(c2cnn(CC(F)(F)F)c2)C3=O)c1`, the inhibition constant Ki was below 100 nM. Regarding `CCn1ccc(N2C(=O)c3c(C)cc(-c4cncc(OC)c4)nc3C2C)n1` (centres undefined), the Ki is below 100 nM. Molecule `COc1cncc(-c2cc(C)c3c(n2)[C@H](C)N(c2ccn(C)n2)C3=O)c1` gave an inhibition constant Ki below 100 nM. Take `COc1cc(-c2cc(C)c3c(n2)CN(c2cnc(OC)c(F)c2)C3=O)cnc1OC`: the Ki is below 100 nM. For the molecule `CCOc1ncc(-c2cc(C)c3c(c2)CN(c2cnn(CC(F)(F)F)c2)C3=O)cc1OC`, the Ki is below 100 nM. For `COc1cc(-c2ccc3c(n2)[C@H](C)N(c2ccn(CC(F)(F)F)n2)C3=O)cnc1OC` the value was below 100 nM; for `CNC(=O)c1cc(-c2cc(C)c3c(n2)C(C)(C)N(c2cnn(CC(F)(F)F)c2)C3=O)cnc1OC`, 100 to 490 nM. Molecule `Cc1cc(-c2cncc(NS(=O)(=O)C(C)C)c2)nc2c1C(=O)N(c1cnn(CC(F)(F)F)c1)C2(C)C` returned a Ki below 100 nM. Regarding `COc1cc(-c2cc(C)c3c(n2)C2(CCOCC2)N(c2cnn(C(C)(C)C#N)c2)C3=O)cnc1OC`, the inhibition constant (Ki) is below 100 nM. For `CCn1ccc(N2C(=O)c3c(C)cc(-c4cncc(OC(F)F)c4)nc3[C@H]2C)n1` the value was below 100 nM; for `COc1cc(-c2ccc3c(n2)C(Cc2ccccc2)N(c2cnn(CC(F)(F)F)c2)C3=O)cnc1OC` (centres undefined), below 100 nM; for `COc1ncc(-c2cc(C)c3c(n2)C(C)(C)N(c2cnn(CC(F)(F)F)c2)C3=O)cc1NS(=O)(=O)N(C)C`, below 100 nM.

In turn, `COc1ncc(-c2ccc3c(c2)CN(c2cnn(CC#N)c2)C3=O)c(OC)n1` displayed a Ki below 100 nM. Take `COc1ccc(-c2cc(C)c3c(c2)CN(c2cnn(CC(F)(F)F)c2)C3=O)nc1OC`: the Ki is below 100 nM. Molecule `COc1cc(-c2ccc3c(n2)CN(c2ccc(OCC4OCCO4)nc2)C3=O)cnc1OC` showed a Ki below 100 nM.

Take `COc1cc(-c2cc(C)c3c(c2)CN(c2cnn(CC(F)(F)F)c2)C3=O)cnc1OC`: the Ki was below 100 nM.

Molecule `CCn1cc(N2Cc3nc(-c4cnc(OC)c(OC(F)F)c4)cc(C)c3C2=O)cn1` yielded an inhibition constant (Ki) below 100 nM. Molecule `COc1cc(-c2ccc3c(n2)CN(c2cnn(CCC#N)c2)C3=O)cnc1OC` yielded a Ki below 100 nM.

For `COc1cc(-c2ccc3c(c2)CN(c2cccc(C(C)=O)c2)C3=O)cnc1OC`, the inhibition constant Ki lay in the range of 100 to 490 nM.

Molecule `Cc1cc(-c2cnc3ccccc3c2)nc2c1C(=O)N(c1cnn(CC(F)(F)F)c1)C2` came in with an inhibition constant Ki below 100 nM. Molecule `COc1cc(-c2ccc3c(n2)CN(c2ccn(C[C@H](C)O)n2)C3=O)cnc1OC` came in with an inhibitory constant (Ki) below 100 nM.

The molecule `COc1cc(-c2ccc3c(n2)CN(c2ccon2)C3=O)cnc1OC` yielded an inhibition constant Ki below 100 nM.

`COc1cc(-c2ccc3c(n2)[C@H](OC)N(c2cnn(CC(F)(F)F)c2)C3=O)cnc1OC` had an inhibition constant (Ki) below 100 nM.

Consider `COc1cc(-c2cc(C)c3c(n2)[C@H](C)N(c2cnn(C[C@@H](C)O)c2)C3=O)cnc1OC`, for which the Ki is below 100 nM.

As for `Cc1cc(-c2cncc(OCC(F)(F)F)c2)cc2c1C(=O)N(c1cnn(CC(F)(F)F)c1)C2C` (centres undefined), the Ki is below 100 nM. In turn, `COC(=O)Cc1cncc(N2Cc3nc(-c4cnc(OC)c(OC)c4)cc(C)c3C2=O)c1` gave an inhibition constant (Ki) below 100 nM. On to `Cc1cc(-c2ccc(F)c(O)c2)nc2c1C(=O)N(c1cnn(CC(F)(F)F)c1)C2`, for which the Ki is below 100 nM. For `COc1cc(-c2ccc3c(n2)CN(c2nccs2)C3=O)cnc1OC` the value was below 100 nM; for `COc1cncc(-c2cc(C)c3c(n2)CN(c2cn(CC(F)(F)F)cn2)C3=O)c1`, below 100 nM. Under `COc1cc(-c2cc3c(c(C)n2)C(=O)N(c2cnn(CC(F)(F)F)c2)C3)cnc1OC` stands below 100 nM; under `COc1ccc(-c2cc(C)c3c(n2)CN(c2cnn(C(C)(C)C#N)c2)C3=O)cc1OC`, below 100 nM; under `Cc1cc(-c2cncc(OCC(F)(F)F)c2)nc2c1C(=O)N(c1cnn(CC(F)F)c1)C2`, below 100 nM.

On to `Cc1cc(-c2cncc(OC(F)F)c2)nc2c1C(=O)N(c1ccnc(OCC(F)F)c1)C2C` (centres undefined), for which the Ki was below 100 nM. `COc1cc(-c2cc(C)c3c(n2)[C@](C)(O)N(c2cnn(CC(F)(F)F)c2)C3=O)cnc1OC` registered a Ki below 100 nM. `COc1cc(OC)cc(-c2cc(C)c3c(n2)CN(c2cnn(CC#N)c2)C3=O)c1` yielded an inhibition constant Ki below 100 nM. `COc1cc(-c2cc(C)c3c(n2)CN(c2ccsc2)C3=O)cnc1OC` returned a Ki below 100 nM.

`COc1cc(-c2cc(C)c3c(n2)CN(c2cnn(CC(F)(F)F)c2)C3=O)ccc1C` showed a Ki below 100 nM.

As to `COCn1cc(N2Cc3cc(-c4cnc(OC)c(OC)c4)ccc3C2=O)cn1`, the Ki is below 100 nM. As to `COc1cc(-c2cc(C)c3c(n2)CN(c2ccc(C(C)(C)O)nc2)C3=O)cnc1OC`, the Ki was below 100 nM.

In turn, `COc1cc(-c2ccc3c(n2)C(N2CC[C@@H](F)C2)N(c2cnn(CC(F)(F)F)c2)C3=O)cnc1OC` (some centres undefined) yielded an inhibitory constant (Ki) below 100 nM. The molecule `Cc1cc(-c2cncc(OCC(F)(F)F)c2)cc2c1C(=O)N(c1cnn(CC(F)(F)F)c1)C2` had an inhibition constant Ki below 100 nM.
